pEC50: −log10 of the molar value.
Molecular target: T1, HNEAA81 (Homo sapiens, UniProt Q9BPV8)
T1 construct: expressed in transfected cells; host or cells: HEK-293 (transient co-transfection)
T1 sequence (Q9BPV8 1-333 isoform Q9BPV8-2): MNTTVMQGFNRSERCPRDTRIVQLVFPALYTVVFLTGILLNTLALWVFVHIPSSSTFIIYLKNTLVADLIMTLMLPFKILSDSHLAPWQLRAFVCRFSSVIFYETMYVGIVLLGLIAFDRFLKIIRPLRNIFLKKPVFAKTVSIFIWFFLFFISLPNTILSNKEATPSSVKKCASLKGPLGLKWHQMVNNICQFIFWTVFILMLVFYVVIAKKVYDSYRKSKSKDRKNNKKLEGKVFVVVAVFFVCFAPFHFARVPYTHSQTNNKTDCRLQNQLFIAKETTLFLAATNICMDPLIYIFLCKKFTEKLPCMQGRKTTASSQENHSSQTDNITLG
Assay: FLIPR calcium mobilisation response in HEK-293 cells transiently co-transfected with HNEAA81 and G-proteins
Format: cell-based
Details: for calcium mobilization response (in words): HEK-293 cells transfected with HNEAA81 and the G-proteins
Protocol: HEK-293 cells were transiently co-transfected with a mammalian expression plasmid encoding HNEAA81 polypeptide, along with cDNAs encoding either the promiscuous G-protein Gal6 or the chimeric G-proteins Gql5 or Gqo5and assayed on FLIPR (Fluorometric Imaging Plate Reader) for a calcium mobilisation response following addition of AP6A or AP5A or d-UDP.
A dose-dependent (EC50s ˜300 nM), calcium mobilization response was detected following addition of AP6A (response with AP5A or d-UDP not so strong) to cells transfected with HNEAA81 and the G-proteins. […] The cDNAs for both the receptor and the G-proteins had to be expressed in the HEK-293 in order to detect a functional response to these agonists.

| calcium mobilization response (in words) | pEC50 (HEK-293 cells transfected with HNEAA81 and the G-proteins (Gal6 or Gql5 or Gqo5), read-out: EC50 of dose-dependent calcium mobilization response) | Compound |
| --- | --- | --- |
| not so strong |  | Nc1ncnc2c1ncn2C1OC(COP(=O)(O)OP(=O)(O)OP(=O)(O)OP(=O)(O)OP(=O)(O)OCC2OC(n3cnc4c(N)ncnc43)C(O)C2O)C(O)C1O (stereo not shown) [AP5A, di-adenosine pentaphosphate] |
| not so strong |  | O=c1ccn(C2OC(COP(=O)(O)OP(=O)(O)O)CC2O)c(=O)[nH]1 (stereo not drawn) [d-UDP] |
| dose-dependent | ~6.52 | Nc1ncnc2c1ncn2C1OC(COP(=O)(O)OP(=O)(O)OP(=O)(O)OP(=O)(O)OP(=O)(O)OP(=O)(O)OCC2OC(n3cnc4c(N)ncnc43)C(O)C2O)C(O)C1O (stereo not shown) [AP6A, di-adenosine hexaphosphate] |
